Results reported in patent US20210078972A1, “QUINOLINE OR QUINAZOLINE COMPOUND AND APPLICATION THEREOF” (HAIHE BIOPHARMA CO., LTD., priority 2018, published 2021).

Columns and labels:
[1] = biological target: T1, AXL kinase domain recombinant protein (Homo sapiens, UniProt P30530); assay: AXL kinase inhibition, ELISA; assay type: biochemical; details: ATP 5 μM
T1 construct: the AXL kinase domain recombinant protein (eurofins, 14-512); purchased eurofins 14-512
T1 sequence (P30530 536-807 limits assumed): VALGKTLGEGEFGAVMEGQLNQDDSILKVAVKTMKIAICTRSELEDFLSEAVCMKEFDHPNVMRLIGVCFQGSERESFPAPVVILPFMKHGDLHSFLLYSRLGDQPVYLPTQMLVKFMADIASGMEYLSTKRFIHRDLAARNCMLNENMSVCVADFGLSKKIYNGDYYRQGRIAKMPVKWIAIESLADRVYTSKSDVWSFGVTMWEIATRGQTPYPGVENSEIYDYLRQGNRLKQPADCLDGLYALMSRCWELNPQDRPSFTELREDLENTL
Experimental: Detection of the activity of kinase: Enzyme-linked immunosorbent assay (ELISA) technology was used to detect the inhibitory activities of the compounds against the kinase. […] After the liquid in the well was discarded, the plate was washed three times with T-PBS (PBS containing 0.1% Tween-20), 200 μL T-PBS per well, 5 minutes for each time. The enzyme label plate was dried in an oven at 37° C. for 1-2 hours. To each well was added 50 μL of ATP solution diluted with reaction buffer (50 mM HEPES, pH 7.4, 50 mM MgCl2, 0.5 mM MnCl2, 0.2 mM Na3VO4, 1 mM DTT) with a final concentration of 5 μM. […] Two wells with no enzyme for control are required for each experiment. The plate was incubated on a shaker (100 rpm) at 37° C. and reacted for 1 hour. The plate was washed three times with T-PBS. 100 μ/well of primary antibody PY99 dilution was added and the plate was reacted in a shaker at 37° C. for 0.5 hour. The plate was washed three times with T-PBS. 100 μ/well of secondary antibody horseradish peroxidase-labeled goat anti-mouse IgG dilution was added and the plate was reacted in a shaker at 37° C. for 0.5 hour. The plate was washed three times with T-PBS. 2 mg/ml of OPD color solution was added with 100 μ/well (diluted with 0.1 M citric acid-sodium citrate buffer (pH=5.4) containing 0.03% H2O2), and the plate was reacted at 25° C. in the dark for 1-10 minutes. (Ultrasound is required for the dissolution of OPD, and the color solution needs to be prepared for immediate use). 50 μ/well of 2 M H2SO4 was added to stop the reaction, and the wavelength-adjustable enzyme-labeling instrument SPECTRA MAX 190 was used to read the data at a wavelength of 490 nm.
The inhibition rate of the sample was obtained by the following formula: […]
The IC50 values were obtained by regression with the four-parameter method using the software attached to the enzyme-labeling instrument.

Flt3 kinase = biological target: T2, Flt3 kinase (Homo sapiens, UniProt P36888); assay: Flt3 kinase inhibition, Z'-LYTE FRET; assay type: biochemical; details: ATP 500 μM
T2 construct: purchased life PV6253
T2 sequence (P36888 27-993): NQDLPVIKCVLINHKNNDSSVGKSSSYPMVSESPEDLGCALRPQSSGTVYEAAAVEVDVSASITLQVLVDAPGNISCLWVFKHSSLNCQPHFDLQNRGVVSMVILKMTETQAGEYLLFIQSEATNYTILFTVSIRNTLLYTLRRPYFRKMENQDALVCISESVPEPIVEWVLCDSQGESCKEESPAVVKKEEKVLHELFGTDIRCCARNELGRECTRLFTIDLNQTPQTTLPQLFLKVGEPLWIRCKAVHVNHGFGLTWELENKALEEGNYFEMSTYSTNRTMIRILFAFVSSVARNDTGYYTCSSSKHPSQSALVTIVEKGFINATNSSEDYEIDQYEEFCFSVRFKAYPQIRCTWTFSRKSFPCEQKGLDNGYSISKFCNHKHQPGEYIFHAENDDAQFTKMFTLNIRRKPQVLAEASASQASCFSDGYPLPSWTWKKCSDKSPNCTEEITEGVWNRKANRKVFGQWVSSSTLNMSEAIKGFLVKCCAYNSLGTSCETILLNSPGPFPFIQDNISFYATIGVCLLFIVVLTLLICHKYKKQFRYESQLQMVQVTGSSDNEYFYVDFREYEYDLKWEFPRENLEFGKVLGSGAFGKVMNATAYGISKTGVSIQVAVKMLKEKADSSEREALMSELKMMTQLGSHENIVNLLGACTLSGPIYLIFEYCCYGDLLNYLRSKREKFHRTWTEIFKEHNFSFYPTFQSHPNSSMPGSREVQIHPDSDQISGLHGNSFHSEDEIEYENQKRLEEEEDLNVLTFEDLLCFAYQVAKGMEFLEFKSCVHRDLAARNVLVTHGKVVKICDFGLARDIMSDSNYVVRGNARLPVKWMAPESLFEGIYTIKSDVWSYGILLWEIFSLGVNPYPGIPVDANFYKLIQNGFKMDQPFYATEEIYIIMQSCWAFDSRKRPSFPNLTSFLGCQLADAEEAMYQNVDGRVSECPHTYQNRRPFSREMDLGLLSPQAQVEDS
From the text: Detection of the activity of kinase: the inhibitory activities of the compounds against Flt3 kinase (life, PV6253) were detected through a second-order reaction by the Z′-LYTE™ technology (detected by fluorescence, enzyme-coupled form, based on the difference in a sensitivity of phosphorylated and non-phosphorylated polypeptides to proteolytic cleavage), based on the principle of fluorescence resonance energy transfer (FRET), using Z′-LYTE™ FRET peptide substrate (Z′-LYTE™ Tyrosine 2 Peptide Substrate, Invitrogen, PV3191).
Enzymatic reaction: To a 384-well plate were added 5 μL of enzyme-substrate system (50 mM HEPES, pH 7.5, 0.01% BRU-35, 10 mM MgC2, 1 mM EGTA), 2.5 μL of a compound (concentration gradient) and 2.5 μL of a mixed solution of ATP (a final concentration of a substrate Z′-LYTE™ Tyrosine 2 Peptide Substrate was 2 μM, and a final concentration of ATP was 500 μM), and then the plate was incubated at 37° C. in the dark for 1 h.
Detecting reaction: 5 μL of Development Solution (1:64 dilution) was added to each well and the plate was incubated at 37° C. in the dark for 1 h, then 5 μL of Stop Reagent was added.
The data analysis method is as follows:
Phosphorylation ratio=1−{(emission ratio×F100%−C100%)/[C0%−C100%+emission ratio×(F100%−F0%)]}×100;
Inhibition rate=100×(1−compound phosphorylation ratio/negative control phosphorylation ratio).
The IC50 values were calculated by GraphPad Prism software.

| IC50 [1] | IC50 (Flt3 kinase) | SMILES |
| --- | --- | --- |
| 1.2 nM | 10 nM | CCc1ccc2c(c1)c(=O)c(C(=O)Nc1ccc(Oc3ncnc4cc(OCCCN5CCOCC5)c(OC)cc34)c(F)c1)c(C)n2C [GDL5000123, 6-ethyl-N-(3-fluoro-4-((6-methoxy-7-(3-morpholinopropoxy)quinazolin-4-yl)oxy)phenyl)-1,2-dime thyl-4-oxo-1,4-dihydroquinoline-3-carboxamide, reference compound] |
| 1.1 nM | 1.9 nM | COc1cc2c(Oc3ccc(NC(=O)c4c(C)n(C)c5ccc(OC(F)(F)F)cc5c4=O)cc3F)ncnc2cc1OCCCN1CCOCC1 [TL-134, N-(3-fluoro-4-((6-methoxy-7-(3-morpholinopropoxy)quinazolin-4-yl)oxy)phenyl)-1,2-dim ethyl-4-oxo-6-(trifluoromethoxy)-1,4-dihydroquinoline-3-carboxamide] |
